Consider 2 compounds from patent publication US8772335B2, “Adamantyl derivatives as therapeutic agents” (Women & Infants' Hospital of Rhode Island, priority 2011, dated 2014).

Assay type in all cases: cell-based
The test system of one data set is SKOV-3 cells. Put plainly: Cell cycle progression of SKOV-3 cells (propidium iodide, FACS). On the set-up: G1 / Apoptosis: unit not given here. The following applies: for G1 / G2/M / S / Apoptosis: SKOV-3 cells, 10 μM; for G1 / G2/M / S: cell population distribution by FACS; for Apoptosis: sub-G1 population by FACS. As for the experimental part:
SKOV-3 cells (˜1 million) were seeded in complete DMEM media in 10 cm^2 dishes and allowed to adhere overnight. Media was removed and supplemented with AMITC and AC-AM (10 μM) or vehicle and cells were harvested at 4, 12, 18, 32, and 48 hours. The cells were washed and fixed with cold 70% ethanol/H2O. After 1 hour, ethanol was removed and 500 μL of propidinium iodide (PI) (1 mg/10 mL) was added to each tube containing cells. The distribution of the cell population in various phases of cell-cycle was analyzed using FACS. 10,000 events were chosen from each sample.

In data set [1] the test system is immortalized TCL-1 trophoblasts. Put plainly: MTS cell viability, immortalized trophoblasts (control cells). The following applies: drug concentrations of 40 μM. As for the experimental part:
Cancer cells derived from neuroblastoma (SMSKCNR), ovarian (SKOV-3), prostate (PC-3), cervical (HeLa), skin (a431), immortalized lung fibroblasts (MRCS) and immortalized trophoblasts (TCL-1) were seeded (5000-10000) in a 96 well plate in complete medium as recommended by ATCC and allowed to adhere overnight. Medium was replaced with fresh complete medium containing various concentrations of compound (2) and (3). The cells were incubated under standard humidified incubator (5% CO2) for 48 hours. The medium was replaced again with 100 μL of complete RPMI medium containing MTS reagent (Cell titre 96 aqueous one solution cell proliferation assay, Promega, Madison, Wis.) and incubated for 1-6 hours until violet farmazon color developed (the optical density (OD) of the color was read with an ELISA plate reader at 492 nm wavelength). The OD values of the treatment wells were plotted against vehicle OD as 100% cell viablity using MS excel software.
Cancer cells derived from neuroblastoma (SMSKCNR), ovarian (SKOV-3), prostate (PC-3), endometrial (ECC-1, AN3CA, KLE), breast (MCF-7) and trophoblasts (TCL-1) were seeded (5000-10000 cells/well) in a 96 well plate in complete medium as recommended by ATCC and allowed to adhere overnight. The medium was replaced with fresh complete medium containing ascorbic acid (500 μM) and added various concentrations of AC-AM. […]

In data set [2] the test system is ovarian and endometrial cancer cells. Put plainly: MTS viability with ascorbic acid co-treatment (role of ROS). The method, then: Cancer cells derived from neuroblastoma (SMSKCNR), ovarian (SKOV-3), prostate (PC-3), endometrial (ECC-1, AN3CA, KLE), breast (MCF-7) and trophoblasts (TCL-1) were seeded (5000-10000 cells/well) in a 96 well plate in complete medium as recommended by ATCC and allowed to adhere overnight. The medium was replaced with fresh complete medium containing ascorbic acid (500 μM) and added various concentrations of AC-AM. The cells were incubated under standard humidified incubator (5% CO2) for 24 hours. The medium was replaced again with 100 μL of complete RPMI medium containing MTS reagent (Cell titre 96 aqueous one solution cell proliferation assay, Promega, Madison, Wis.) and incubated for 1-6 hours until violet farmazon color developed (the optical density of the color was read with an ELISA plate reader at 492 nm wavelength). The OD values of the treatment wells were plotted against vehicle OD set at 100% cell viability using MS excel software.

As to `S=C=NCC12CC3CC(CC(C3)C1)C2` [AMITC, adamantyl methyl isothiocyanate], the G1 with SKOV-3 cells (4 hr) turned out to be 63; in the data set on SKOV-3 cells (12 hr), 46.18; in the data set with SKOV-3 cells (18 hr) it was 39.19; in the data set on SKOV-3 cells (32 hr) it was 48; in the data set with SKOV-3 cells (48 hr), 43. In addition, the G2/M turned out to be 11 with SKOV-3 cells (4 hr); 26.06 in the data set with SKOV-3 cells (12 hr); 29.13 with SKOV-3 cells (18 hr); 20.12 with SKOV-3 cells (32 hr); 37.44 in the data set with SKOV-3 cells (48 hr). Besides, the S in the data set with SKOV-3 cells (4 hr) was found to be 25.30; in the data set on SKOV-3 cells (12 hr), 27.27; in the data set with SKOV-3 cells (18 hr), 31.32; with SKOV-3 cells (32 hr), 31.86; in the data set with SKOV-3 cells (48 hr), 19.36. Moreover, the Apoptosis is 7.24 in the data set on SKOV-3 cells (4 hr); 8.52 in the data set with SKOV-3 cells (12 hr); 14.83 with SKOV-3 cells (18 hr); 16.07 with SKOV-3 cells (32 hr); 19.46 in the data set on SKOV-3 cells (48 hr). In addition, the “effect on cell cycle phases (in words)” value in the data set on SKOV-3 cells (SKOV-3 ovarian cancer cells) is on record as “arrest ovarian cancer cells in G2/M phase”. Also, the “viability of immortalized TCL-1 trophoblasts” value in data set [1] was “not significantly affected”.

As to `CC(=O)NC(CSC(=S)NCC12CC3CC(CC(C3)C1)C2)C(=O)O` (stereo not shown) [AC-AM], in data set [2], the “effect of antioxidant ascorbic acid on cytotoxicity” value was “blocked”. Further, the G1 in the data set on SKOV-3 cells (4 hr) was 63; in the data set with SKOV-3 cells (12 hr) it was 45.15; with SKOV-3 cells (18 hr) it was 37.37; with SKOV-3 cells (32 hr), 37.78; in the data set on SKOV-3 cells (48 hr), 48.48. Besides, the G2/M in the data set with SKOV-3 cells (4 hr) stood at 10.40; with SKOV-3 cells (12 hr), 27.17; in the data set with SKOV-3 cells (18 hr), 30.85; in the data set on SKOV-3 cells (32 hr), 28.89; in the data set with SKOV-3 cells (48 hr) it was 17.90. In addition, the S was determined as 25.70 in the data set on SKOV-3 cells (4 hr); 27.67 with SKOV-3 cells (12 hr); 31.78 in the data set on SKOV-3 cells (18 hr); 33.34 in the data set on SKOV-3 cells (32 hr); 33.62 in the data set on SKOV-3 cells (48 hr). The Apoptosis in the data set with SKOV-3 cells (4 hr) came out at 4.81; in the data set on SKOV-3 cells (12 hr), 7.73; in the data set on SKOV-3 cells (18 hr), 13.33; in the data set on SKOV-3 cells (32 hr) it was 16.29; with SKOV-3 cells (48 hr), 16.62.
